Measurements taken from PubChem BioAssay (NCI).
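Results reflect a 48-hour exposure of cells in 96-well plates to compound at five concentrations. TGI: concentration producing complete growth inhibition.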

Key:
Assay in all cases: NCI-60 cell line screen, 48 h
786-0 renal = test system: 786-0 renal
A498 renal = test system: A498 renal
A549 NSCLC = test system: A549 NSCLC
ACHN renal = test system: ACHN renal
BT-549 breast = test system: BT-549 breast
CAKI-1 renal = test system: CAKI-1 renal
CCRF-CEM leukemia = test system: CCRF-CEM leukemia
COLO 205 colon = test system: COLO 205 colon
DU-145 prostate = test system: DU-145 prostate
EKVX NSCLC = test system: EKVX NSCLC
HCC-2998 colon = test system: HCC-2998 colon
HCT-116 colon = test system: HCT-116 colon
HCT-15 colon = test system: HCT-15 colon
HL-60(TB) leukemia = test system: HL-60(TB) leukemia
HOP-62 NSCLC = test system: HOP-62 NSCLC
HS 578T breast = test system: HS 578T breast
HT29 colon = test system: HT29 colon
IGROV1 ovarian = test system: IGROV1 ovarian
K-562 leukemia = test system: K-562 leukemia
KM12 colon = test system: KM12 colon
M14 melanoma = test system: M14 melanoma
MALME-3M melanoma = test system: MALME-3M melanoma
MCF7 breast = test system: MCF7 breast
MDA-MB-231 breast = test system: MDA-MB-231 breast
MDA-MB-435 = test system: MDA-MB-435
MDA-N = test system: MDA-N
MOLT-4 leukemia = test system: MOLT-4 leukemia
NCI-H226 lung = test system: NCI-H226 lung
NCI-H23 lung = test system: NCI-H23 lung
NCI-H460 lung = test system: NCI-H460 lung
NCI-H522 lung = test system: NCI-H522 lung
NCI/ADR-RES ovarian = test system: NCI/ADR-RES ovarian
OVCAR-3 ovarian = test system: OVCAR-3 ovarian
OVCAR-4 ovarian = test system: OVCAR-4 ovarian
OVCAR-5 ovarian = test system: OVCAR-5 ovarian
OVCAR-8 ovarian = test system: OVCAR-8 ovarian
PC-3 prostate = test system: PC-3 prostate
RPMI-8226 leukemia = test system: RPMI-8226 leukemia
RXF 393 renal = test system: RXF 393 renal
SF-268 CNS = test system: SF-268 CNS
SF-295 CNS = test system: SF-295 CNS
SF-539 CNS = test system: SF-539 CNS
SK-MEL-2 melanoma = test system: SK-MEL-2 melanoma
SK-MEL-28 melanoma = test system: SK-MEL-28 melanoma
SK-MEL-5 melanoma = test system: SK-MEL-5 melanoma
SK-OV-3 ovarian = test system: SK-OV-3 ovarian
SN12C renal = test system: SN12C renal
SNB-19 CNS = test system: SNB-19 CNS
SNB-75 CNS = test system: SNB-75 CNS
SR leukemia = test system: SR leukemia
SW-620 colon = test system: SW-620 colon
T-47D breast = test system: T-47D breast
TK-10 renal = test system: TK-10 renal
U251 CNS = test system: U251 CNS
UACC-257 melanoma = test system: UACC-257 melanoma
UACC-62 melanoma = test system: UACC-62 melanoma
UO-31 renal = test system: UO-31 renal

Measured: TGI

NC(Cc1c[nH]c2ccccc12)P(=O)(O)O (configuration not stated)
> 100 µM: all assays above
